Assay results taken from ChEMBL document CHEMBL1201862, “PubChem BioAssay data set” (2004).
Activity calls are given as the source filed them.

How the values were obtained:
[1] = target: 72 kDa type IV collagenase (Homo sapiens, UniProt P08253); test: Dose Response validation of uHTS RPN11 inhibitor hits using a MMP-2 Fluorescence assay.; assay type: functional
[2] = target: 26S proteasome non-ATPase regulatory subunit 14 (Homo sapiens, UniProt O00487); test: inhibition of proteasome subunit RPN11 – biochemical, fluorescence polarization, uHTS hits, confirmation (AID 602368); assay type: functional
Prothrombin = Prothrombin (Bos taurus, UniProt P00735); test: thrombin inhibition, dose response, biochemical, fluorescence polarization, uHTS hits (AID 602369); assay type: functional
[3] = target: Dual specificity protein kinase CLK4 (Homo sapiens, UniProt Q9HAZ1); assay type: functional
[4] = target: STE20-like serine/threonine-protein kinase (Homo sapiens, UniProt Q9H2G2); assay type: functional
[5] = target: Cyclin-dependent kinase 1 (Homo sapiens, UniProt P06493); assay type: functional;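 also: Kinome-wide panel profiling, with the target listed as panel member CDC2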
[6] = target: Dual specificity protein kinase CLK2 (Homo sapiens, UniProt P49760); assay type: functional
[7] = target: MAP/microtubule affinity-regulating kinase 3 (Homo sapiens, UniProt P27448); assay type: functional;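 also: MARK3 affinity measured as one member of a kinome panel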
[8] = target: Cyclin-dependent kinase 5 (Homo sapiens, UniProt Q00535); assay type: functional;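 also: CDK5 measured as one member of a kinase profiling panel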
[9] = target: Tyrosine-protein kinase receptor UFO (Homo sapiens, UniProt P30530); assay type: functional
[10] = target: Glycogen synthase kinase-3 beta (Homo sapiens, UniProt P49841); assay type: functional;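 also: value comes from a broad kinome profiling panel, with GSK3B as the panel member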
Misshapen-like kinase 1 = Misshapen-like kinase 1 (Homo sapiens, UniProt Q8N4C8); assay type: functional;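 also: kinome panel screen with MINK as the panel member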
[11] = target: Mitogen-activated protein kinase kinase kinase kinase 4 (Homo sapiens, UniProt O95819); assay type: functional
[12] = target: Cell division cycle 7-related protein kinase (Homo sapiens, UniProt O00311); assay type: functional;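 also: value obtained from a kinome-wide kinase panel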
[13] = target: ALK tyrosine kinase receptor (Homo sapiens, UniProt Q9UM73); assay type: functional;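 also: ALK tested as one member of a kinase panel screen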
[14] = A Cell Based Secondary Assay to Explore Cytotoxicity in THP-1 Cells of Compounds that Modulate Mycobacterium tuberculosis in Media Containing Glycerol versus Media without Glycerol (2).; assay type: functional
[15] = THP-1 cell cytotoxicity, dose response, cytotoxicity control, set 3 (AID 504852); assay type: functional; conditions: Mycobacterium tuberculosis
[16] = THP-1 cell cytotoxicity, cytotoxicity control, set 4 (AID 504911); assay type: functional; conditions: Mycobacterium tuberculosis
[17] = target: DNA (cytosine-5)-methyltransferase 1 (Homo sapiens, UniProt P26358); test: DNMT1 methyltransferase inhibitors, confirmation, biochemical, fluorescent molecular beacon (AID 602386); assay type: functional
[18] = target: T1, DNA repair protein RAD52 homolog (Homo sapiens, UniProt P43351); assay type: functional, biochemical
T1 sequence (P43351 whole entry): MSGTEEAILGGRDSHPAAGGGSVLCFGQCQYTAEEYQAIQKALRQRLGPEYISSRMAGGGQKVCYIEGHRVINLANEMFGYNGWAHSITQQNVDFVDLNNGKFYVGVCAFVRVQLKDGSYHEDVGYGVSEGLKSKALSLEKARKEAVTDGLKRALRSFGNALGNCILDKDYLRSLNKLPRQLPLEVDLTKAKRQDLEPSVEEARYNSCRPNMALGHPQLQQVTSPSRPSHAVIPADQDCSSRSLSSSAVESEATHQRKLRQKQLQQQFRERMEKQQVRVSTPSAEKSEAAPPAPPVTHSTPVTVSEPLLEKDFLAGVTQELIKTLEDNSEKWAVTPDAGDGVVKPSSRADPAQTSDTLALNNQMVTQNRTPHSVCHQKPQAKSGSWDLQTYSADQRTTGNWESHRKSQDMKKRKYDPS

[19] = target: T2, Rac GTPase-activating protein 1 (Homo sapiens, UniProt Q9H0H5); test: MgcRacGAP GTPase-activating activity inhibitors, confirmation, biochemical, ADP Hunter fluorescence, primary and confirmatory (AID 624330); assay type: functional
T2 sequence (Q9H0H5 whole entry): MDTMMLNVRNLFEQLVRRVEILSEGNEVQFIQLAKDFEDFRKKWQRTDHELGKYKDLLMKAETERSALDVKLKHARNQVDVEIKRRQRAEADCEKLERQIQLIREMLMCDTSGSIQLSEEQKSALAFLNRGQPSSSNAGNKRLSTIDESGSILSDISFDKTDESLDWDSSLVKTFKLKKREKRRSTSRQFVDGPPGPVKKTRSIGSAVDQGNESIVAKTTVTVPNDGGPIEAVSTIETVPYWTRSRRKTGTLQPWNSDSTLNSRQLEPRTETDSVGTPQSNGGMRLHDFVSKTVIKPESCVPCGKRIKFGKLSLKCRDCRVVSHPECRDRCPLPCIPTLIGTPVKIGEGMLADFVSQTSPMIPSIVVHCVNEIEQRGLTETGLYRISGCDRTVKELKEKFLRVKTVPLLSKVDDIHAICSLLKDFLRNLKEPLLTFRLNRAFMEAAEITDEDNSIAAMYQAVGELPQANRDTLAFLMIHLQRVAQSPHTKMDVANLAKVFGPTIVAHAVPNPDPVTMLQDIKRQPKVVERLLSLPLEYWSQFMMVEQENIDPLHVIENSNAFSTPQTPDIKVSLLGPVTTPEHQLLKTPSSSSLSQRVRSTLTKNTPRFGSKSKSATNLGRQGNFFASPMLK

[20] = target: T3, High affinity choline transporter 1 (Homo sapiens, UniProt Q9GZV3); test: CHT activators, dose response, cell-based, 10-point CRC, membrane potential dye (AID 602376); assay type: functional
T3 sequence (Q9GZV3 whole entry): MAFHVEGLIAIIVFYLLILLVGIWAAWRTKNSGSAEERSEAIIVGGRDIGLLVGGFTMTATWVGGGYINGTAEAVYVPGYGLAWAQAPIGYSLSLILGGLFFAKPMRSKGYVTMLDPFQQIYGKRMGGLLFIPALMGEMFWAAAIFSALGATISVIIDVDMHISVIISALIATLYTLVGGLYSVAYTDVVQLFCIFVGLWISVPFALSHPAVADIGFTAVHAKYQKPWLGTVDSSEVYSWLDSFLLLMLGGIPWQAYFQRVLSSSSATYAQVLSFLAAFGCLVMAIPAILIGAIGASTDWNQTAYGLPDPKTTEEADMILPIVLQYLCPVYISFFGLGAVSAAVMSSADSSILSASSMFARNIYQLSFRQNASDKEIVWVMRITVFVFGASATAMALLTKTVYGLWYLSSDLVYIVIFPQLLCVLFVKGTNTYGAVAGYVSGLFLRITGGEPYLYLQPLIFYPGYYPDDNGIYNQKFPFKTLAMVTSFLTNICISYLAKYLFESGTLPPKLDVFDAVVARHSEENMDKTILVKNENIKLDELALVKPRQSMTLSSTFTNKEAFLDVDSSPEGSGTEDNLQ

[21] = target: Serine/threonine-protein kinase pim-1 (Homo sapiens, UniProt P11309); assay type: functional
[22] = target: Interleukin-1 receptor-associated kinase 4 (Homo sapiens, UniProt Q9NWZ3); assay type: functional
[23] = target: Homeodomain-interacting protein kinase 2 (Homo sapiens, UniProt Q9H2X6); assay type: functional;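 also: measured within a kinome-wide kinase profiling panel, HIPK2 being one panel member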
[24] = target: cAMP-dependent protein kinase catalytic subunit alpha (Homo sapiens, UniProt P17612); assay type: functional

Chain of Cell division cycle 7-related protein kinase (O00311 whole entry): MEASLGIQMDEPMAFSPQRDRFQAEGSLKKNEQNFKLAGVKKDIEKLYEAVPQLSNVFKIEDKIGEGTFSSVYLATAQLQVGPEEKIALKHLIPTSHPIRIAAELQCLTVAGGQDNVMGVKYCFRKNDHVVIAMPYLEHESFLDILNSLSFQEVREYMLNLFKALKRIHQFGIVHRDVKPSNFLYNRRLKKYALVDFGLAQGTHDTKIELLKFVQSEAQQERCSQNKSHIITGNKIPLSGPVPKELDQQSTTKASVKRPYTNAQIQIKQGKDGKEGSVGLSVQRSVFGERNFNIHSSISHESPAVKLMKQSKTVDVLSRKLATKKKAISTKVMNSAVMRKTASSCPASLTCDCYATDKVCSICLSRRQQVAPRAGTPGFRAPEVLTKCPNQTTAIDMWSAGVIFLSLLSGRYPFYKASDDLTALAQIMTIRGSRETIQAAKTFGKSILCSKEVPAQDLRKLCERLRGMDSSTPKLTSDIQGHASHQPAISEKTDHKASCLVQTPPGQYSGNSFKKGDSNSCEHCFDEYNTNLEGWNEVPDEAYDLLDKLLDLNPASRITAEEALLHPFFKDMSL
Chain of Glycogen synthase kinase-3 beta (P49841 whole entry): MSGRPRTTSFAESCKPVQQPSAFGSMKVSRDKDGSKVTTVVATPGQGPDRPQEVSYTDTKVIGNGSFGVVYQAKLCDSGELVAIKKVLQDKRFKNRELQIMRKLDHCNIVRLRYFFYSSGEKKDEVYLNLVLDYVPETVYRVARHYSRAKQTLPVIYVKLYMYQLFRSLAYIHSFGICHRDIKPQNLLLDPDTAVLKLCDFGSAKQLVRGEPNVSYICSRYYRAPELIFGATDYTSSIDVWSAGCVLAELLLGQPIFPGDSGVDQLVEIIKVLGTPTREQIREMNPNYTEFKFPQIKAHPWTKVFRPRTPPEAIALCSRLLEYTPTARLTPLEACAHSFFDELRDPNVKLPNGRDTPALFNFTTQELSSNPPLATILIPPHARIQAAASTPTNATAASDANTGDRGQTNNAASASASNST
Chain of Dual specificity protein kinase CLK4 (Q9HAZ1 whole entry): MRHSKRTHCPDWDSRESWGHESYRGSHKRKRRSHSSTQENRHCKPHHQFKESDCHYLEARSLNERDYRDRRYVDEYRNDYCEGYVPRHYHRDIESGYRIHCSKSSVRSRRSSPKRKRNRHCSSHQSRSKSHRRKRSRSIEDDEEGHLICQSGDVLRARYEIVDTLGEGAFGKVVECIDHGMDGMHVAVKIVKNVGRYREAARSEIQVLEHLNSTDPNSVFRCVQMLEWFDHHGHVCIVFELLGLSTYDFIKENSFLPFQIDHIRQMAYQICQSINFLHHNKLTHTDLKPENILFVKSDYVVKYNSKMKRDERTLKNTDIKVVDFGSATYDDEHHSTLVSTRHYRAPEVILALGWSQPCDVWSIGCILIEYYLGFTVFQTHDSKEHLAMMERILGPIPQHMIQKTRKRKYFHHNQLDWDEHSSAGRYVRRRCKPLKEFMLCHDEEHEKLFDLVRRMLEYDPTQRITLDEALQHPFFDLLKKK
Chain of Mitogen-activated protein kinase kinase kinase kinase 4 (O95819 whole entry): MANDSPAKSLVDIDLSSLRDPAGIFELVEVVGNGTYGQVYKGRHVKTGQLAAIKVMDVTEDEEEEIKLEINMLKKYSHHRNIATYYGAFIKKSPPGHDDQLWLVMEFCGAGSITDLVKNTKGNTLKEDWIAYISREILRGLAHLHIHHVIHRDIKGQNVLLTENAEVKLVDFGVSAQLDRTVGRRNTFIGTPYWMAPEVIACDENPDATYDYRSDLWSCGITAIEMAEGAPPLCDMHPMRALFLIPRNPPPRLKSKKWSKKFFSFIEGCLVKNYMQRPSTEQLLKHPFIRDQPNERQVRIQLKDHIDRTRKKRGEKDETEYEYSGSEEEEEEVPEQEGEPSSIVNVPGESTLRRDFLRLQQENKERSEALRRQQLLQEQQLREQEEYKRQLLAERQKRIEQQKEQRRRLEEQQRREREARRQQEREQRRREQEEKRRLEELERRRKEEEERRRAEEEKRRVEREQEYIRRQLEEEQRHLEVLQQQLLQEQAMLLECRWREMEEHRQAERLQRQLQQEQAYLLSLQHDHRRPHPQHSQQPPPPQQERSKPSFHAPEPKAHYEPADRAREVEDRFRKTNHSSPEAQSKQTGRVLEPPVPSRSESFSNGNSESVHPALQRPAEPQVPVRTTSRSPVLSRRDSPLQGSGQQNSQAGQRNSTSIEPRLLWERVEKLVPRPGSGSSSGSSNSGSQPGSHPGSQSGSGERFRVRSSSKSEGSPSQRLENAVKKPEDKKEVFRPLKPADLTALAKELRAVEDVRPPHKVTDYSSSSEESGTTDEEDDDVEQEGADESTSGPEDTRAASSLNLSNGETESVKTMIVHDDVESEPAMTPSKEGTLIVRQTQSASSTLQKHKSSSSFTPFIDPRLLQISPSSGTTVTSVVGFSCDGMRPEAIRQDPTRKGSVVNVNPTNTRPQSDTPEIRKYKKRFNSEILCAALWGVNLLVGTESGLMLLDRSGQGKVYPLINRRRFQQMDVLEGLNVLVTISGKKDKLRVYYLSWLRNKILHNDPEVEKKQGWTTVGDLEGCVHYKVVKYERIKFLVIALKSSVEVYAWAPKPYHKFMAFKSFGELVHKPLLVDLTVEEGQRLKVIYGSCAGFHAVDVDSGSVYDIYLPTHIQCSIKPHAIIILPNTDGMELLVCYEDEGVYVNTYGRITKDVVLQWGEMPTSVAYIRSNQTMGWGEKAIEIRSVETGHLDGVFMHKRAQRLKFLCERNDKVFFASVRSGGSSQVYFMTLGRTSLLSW
Chain of ALK tyrosine kinase receptor (Q9UM73 whole entry): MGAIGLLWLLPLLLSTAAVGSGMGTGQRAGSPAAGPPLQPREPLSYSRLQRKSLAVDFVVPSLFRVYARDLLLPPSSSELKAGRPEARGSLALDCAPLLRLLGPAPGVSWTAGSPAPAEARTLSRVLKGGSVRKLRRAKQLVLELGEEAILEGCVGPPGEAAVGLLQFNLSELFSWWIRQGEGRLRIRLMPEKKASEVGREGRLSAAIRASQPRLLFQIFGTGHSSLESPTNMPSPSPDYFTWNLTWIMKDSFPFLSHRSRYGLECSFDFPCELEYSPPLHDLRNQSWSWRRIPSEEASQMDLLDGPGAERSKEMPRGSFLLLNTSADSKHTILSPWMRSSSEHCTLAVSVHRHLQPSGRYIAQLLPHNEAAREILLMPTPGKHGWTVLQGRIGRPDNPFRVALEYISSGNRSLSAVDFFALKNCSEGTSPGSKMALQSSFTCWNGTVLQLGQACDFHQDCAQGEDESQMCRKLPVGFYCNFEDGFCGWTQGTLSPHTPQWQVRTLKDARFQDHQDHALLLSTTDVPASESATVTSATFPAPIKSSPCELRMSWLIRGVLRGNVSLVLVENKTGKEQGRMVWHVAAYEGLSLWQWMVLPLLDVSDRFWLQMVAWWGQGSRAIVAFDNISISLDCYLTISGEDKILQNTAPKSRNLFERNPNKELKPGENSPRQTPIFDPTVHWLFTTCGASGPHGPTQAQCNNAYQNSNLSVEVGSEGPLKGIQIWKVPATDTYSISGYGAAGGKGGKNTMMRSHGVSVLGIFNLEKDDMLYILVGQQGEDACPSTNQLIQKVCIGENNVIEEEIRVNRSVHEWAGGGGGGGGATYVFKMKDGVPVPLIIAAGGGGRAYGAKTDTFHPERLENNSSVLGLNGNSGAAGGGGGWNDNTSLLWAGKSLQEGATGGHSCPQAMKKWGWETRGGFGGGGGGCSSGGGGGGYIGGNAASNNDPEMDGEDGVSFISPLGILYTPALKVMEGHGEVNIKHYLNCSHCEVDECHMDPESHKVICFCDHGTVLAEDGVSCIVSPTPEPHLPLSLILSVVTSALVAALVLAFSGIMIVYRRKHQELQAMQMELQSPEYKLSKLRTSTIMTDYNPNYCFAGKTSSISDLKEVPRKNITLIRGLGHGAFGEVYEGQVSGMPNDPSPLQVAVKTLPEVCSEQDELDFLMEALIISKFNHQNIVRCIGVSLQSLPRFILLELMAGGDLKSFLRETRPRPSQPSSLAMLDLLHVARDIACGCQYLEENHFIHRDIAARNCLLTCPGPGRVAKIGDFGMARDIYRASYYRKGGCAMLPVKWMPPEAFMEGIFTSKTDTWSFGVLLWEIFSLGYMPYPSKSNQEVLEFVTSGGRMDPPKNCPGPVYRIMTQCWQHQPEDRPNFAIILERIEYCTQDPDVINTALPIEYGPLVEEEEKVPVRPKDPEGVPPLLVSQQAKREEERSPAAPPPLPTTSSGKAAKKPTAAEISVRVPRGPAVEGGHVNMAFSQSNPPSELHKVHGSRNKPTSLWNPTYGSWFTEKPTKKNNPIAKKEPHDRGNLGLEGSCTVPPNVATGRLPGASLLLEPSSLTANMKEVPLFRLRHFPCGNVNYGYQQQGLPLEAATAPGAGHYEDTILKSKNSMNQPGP
Chain of MAP/microtubule affinity-regulating kinase 3 (P27448 whole entry): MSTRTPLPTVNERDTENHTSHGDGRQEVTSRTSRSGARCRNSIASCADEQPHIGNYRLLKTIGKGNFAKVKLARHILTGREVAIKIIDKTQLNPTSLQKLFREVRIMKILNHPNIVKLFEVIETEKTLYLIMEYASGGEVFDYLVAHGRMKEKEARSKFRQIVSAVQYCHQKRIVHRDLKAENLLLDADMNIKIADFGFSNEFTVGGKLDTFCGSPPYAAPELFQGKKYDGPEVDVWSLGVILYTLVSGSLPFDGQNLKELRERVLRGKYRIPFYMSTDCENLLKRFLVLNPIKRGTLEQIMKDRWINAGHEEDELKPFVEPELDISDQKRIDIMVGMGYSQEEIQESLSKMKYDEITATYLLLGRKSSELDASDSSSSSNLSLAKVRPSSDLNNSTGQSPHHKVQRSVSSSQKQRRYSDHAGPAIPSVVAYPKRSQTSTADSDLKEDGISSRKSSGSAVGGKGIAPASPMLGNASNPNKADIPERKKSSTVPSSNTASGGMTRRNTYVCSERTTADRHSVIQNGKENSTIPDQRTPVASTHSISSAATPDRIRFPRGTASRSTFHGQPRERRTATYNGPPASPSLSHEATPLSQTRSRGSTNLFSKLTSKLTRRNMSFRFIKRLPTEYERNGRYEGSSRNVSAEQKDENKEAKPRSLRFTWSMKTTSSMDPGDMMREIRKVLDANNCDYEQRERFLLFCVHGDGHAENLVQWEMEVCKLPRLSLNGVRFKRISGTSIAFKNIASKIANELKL

## COc1ccc(CCNc2ccc(C(CC(N)=O)NC(=O)Cc3cccc4ccccc34)cc2[N+](=O)[O-])cc1 (stereo not given)
[1]
  IC50: > 100 µM (inactive)
[2]
  IC50: 25.8 µM (active)
Prothrombin
  IC50: 40.1 µM (active)

## Cc1n[nH]c2c1C(c1ccccc1Br)C(C#N)=C(N)O2 (stereo not given)
[3]
  Ki: 5.01 µM (active)
[4]
  Ki: 1.58 µM (active)
[5]
  Ki: 5.01 µM (active)
[6]
  Ki: 3.16 µM (active)
[7]
  Ki: 2 µM (active)
[8]
  Ki: 3.16 µM (active)
[9]
  Ki: 2 µM (active)
[10]
  Ki: 3.98 µM (active)

## CC(C)Oc1ccc(-c2noc(-c3ccc(CN4CC(C(=O)O)C4)cc3)n2)cc1Cl
Misshapen-like kinase 1
  Ki: 6.31 µM (active)
[11]
  Ki: 5.01 µM (active)

## Oc1cccc(-c2c[nH]c3ncccc23)c1
[12]
  Ki: 316 nM (active)
[13]
  Ki: > 3.16 µM (inactive)

## CC[N+](C)(CC)CCCCOc1ccc2c(c1)C(=O)c1cc(OCCCC[N+](C)(CC)CC)ccc1-2
[14]
  CC50: 38.8 µM (active)
[15]
  CC50: 17.1 µM (active)
[16]
  CC50: 10.5 µM (active)
[17]
  IC50: 1.24 µM (active)
[18]
  AC50: 574 nM (active)
[19]
  IC50: 180 µM (active)

## CC(NCc1cc(Br)ccc1OCC(N)=O)C12CC3CC(CC(C3)C1)C2 (stereo not given)
[20]
  EC50: 13.8 µM (active)

## O=C1Nc2ccccc2Nc2cc(-c3ccncc3)ccc21
[3]
  Ki: 0.0398 µM (active)
[21]
  Ki: > 10 µM (inactive)
[22]
  Ki: 2.51 µM (active)
[23]
  Ki: > 3.16 µM (inactive)
[12]
  Ki: 7.94 nM (active)
[11]
  Ki: 1.26 µM (active)
[24]
  Ki: 1.26 µM (active)
[10]
  Ki: 0.398 µM (active)
